From patent US6683073B1, “Pyrimidine linked pyrrolo[2,1-c][1,4]benzodiazepines as potential antitumour agents” (Council of Scientific and Industrial Research, priority 2003, dated 2004)

Tests used:
CNS cancer cell lines = assay: NCI in vitro cytotoxicity screen (SRB), CNS panel; format: cell-based, human; settings: average of six to eight different cancer cell lines
Procedure: (§1) Biological Activity: In vitro biological activity studies were carried out at National Cancer Institute (USA).
(§2) Cytotoxicity: Compounds VIa and VIb were evaluated in vitro against sixty human tumour cells derived from nine cancer types (leukemia, non-small-cell lung, colon, CNS, melanoma, ovarian, prostate, and breast cancer). For each compound, dose response curves for each cell line were measured at a minimum of five concentrations at 10 fold dilutions. A protocol of 48 h continuous drug exposure was used and a sulforhodamine B (SRB) protein assay was used to estimate cell viability or growth. The concentration causing 50% cell growth inhibition (GI50), total cell growth inhibition (TGI 0% growth) and 50% cell death (LC50, −50% growth) compared with the control was calculated.
(§3) Each cancer type represents the average of six to eight different cancer cell lines.

Breast cancer cell lines = assay: NCI in vitro cytotoxicity screen (SRB), breast panel; format: cell-based, human; settings: average of six to eight different cancer cell lines
Procedure: as §1, §2, §3

[1] = system: non-small-cell lung cancer cell lines; assay: NCI in vitro cytotoxicity screen (SRB), non-small-cell lung panel; format: cell-based, human; settings: average of six to eight different cancer cell lines
Procedure: as §1, §2, §3

Renal cancer cell lines = assay: NCI in vitro cytotoxicity screen (SRB), renal panel; format: cell-based, human; settings: average of six to eight different cancer cell lines
Procedure: as §1, §2, §3

[2] = system: Prostate cancer cell lines; assay: NCI in vitro cytotoxicity screen (SRB), prostate panel; format: cell-based, human; settings: average of six to eight different cancer cell lines
Procedure: as §1, §2, §3

[3] = system: Ovarian cancer cell lines; assay: NCI in vitro cytotoxicity screen (SRB), ovarian panel; format: cell-based, human; settings: average of six to eight different cancer cell lines
Procedure: as §1, §2, §3

Leukaemia cell lines = assay: NCI in vitro cytotoxicity screen (SRB), leukaemia panel; format: cell-based, human; settings: average of six to eight different cancer cell lines
Procedure: as §1, §2, §3

[4] = system: sixty human tumour cells derived from nine cancer types; assay: NCI in vitro cytotoxicity screen, 48 h drug exposure, sulforhodamine B (SRB) protein assay; format: cell-based; settings: for Log10 GI50 mean graph midpoint (MG_MID): concentration causing 50% cell growth inhibition; for Log10 GI50 mean graph midpoint (MG_MID) / Log10 TGI mean graph midpoint (MG_MID): mean over human tumour cell lines, 48 h exposure; for Log10 TGI mean graph midpoint (MG_MID): total cell growth inhibition (0% growth)
Procedure: as §1, §2

Colon cancer cell lines = assay: NCI in vitro cytotoxicity screen (SRB), colon panel; format: cell-based, human; settings: average of six to eight different cancer cell lines
Procedure: as §1, §2, §3

Melanoma cell lines = assay: NCI in vitro cytotoxicity screen (SRB), melanoma panel; format: cell-based, human; settings: average of six to eight different cancer cell lines
Procedure: as §1, §2, §3

Row | Compound | in vitro cytotoxicity, log10 value (quantity not given) (CNS cancer cell lines) | in vitro cytotoxicity, log10 value (quantity not given) (Breast cancer cell lines) | in vitro cytotoxicity, log10 value (quantity not given) [1] | in vitro cytotoxicity, log10 value (quantity not given) (Renal cancer cell lines) | in vitro cytotoxicity, log10 value (quantity not given) [2] | in vitro cytotoxicity, log10 value (quantity not given) [3] | in vitro cytotoxicity, log10 value (quantity not given) (Leukaemia cell lines) | Log10 GI50 mean graph midpoint (MG_MID) [4] | cytotoxic / anticancer activity, in words ([4]; human tumour cell lines) | Log10 TGI mean graph midpoint (MG_MID) [4] | in vitro cytotoxicity, log10 value (quantity not given) (Colon cancer cell lines) | in vitro cytotoxicity, log10 value (quantity not given) (Melanoma cell lines)
1 | COc1cc2c(cc1OCCCCOc1cc(-c3ccc(F)cc3)nc(C)n1)N=C[C@@H]1CCCN1C2=O [VIb, 7-methoxy-8-[6′-(4″-fluorophenyl)-2′-methylpyrimidine-4′-yloxy]butoxy-(11aS)-1,2,3,11a-tetrahydro-5H-pyrrolo[2,1,c][1,4]benzodiazepin-5-one] | −4.40 | −4.52 | −4.61 | −4.39 | −4.45 | −4.33 | −5.41 | −6.41 | slightly higher activity | −5.57 | −4.67 | −5.22
2 | COc1cc2c(cc1OCCCOc1cc(-c3ccc(F)cc3)nc(C)n1)N=C[C@@H]1CCCN1C2=O [VIa, 7-methoxy-8-[6′-(4″-fluorophenyl)-2′-methylpyrimidine-4′-yloxy]propoxy-(11aS)-1,2,3,11a-tetrahydro-5H-pyrrolo[2,1,c][1,4]benzodiazepin-5-one] | −4.10 | −4.09 | −4.07 | −4.18 | −4.00 | −4.05 | −4.03 | −4.73 |  | −4.34 | −4.12 | −4.14
